Source: US10723727B2, “Tubulysin analogs and methods for their preparation” (priority 2016, dated 2020)

What follows are compounds tested against T1, tubulin/RB3-stathmin-like-domain (RB3-SLD-tdm) complex (Sus scrofa, UniProt P02550+P02554) (assay: Tubulin Peptide-Binding Site Competition Assay (fluorescence polarization)). Conditions: FP competition with BODIPY-labeled vinca peptide probe; read after five hours at 22° C.; read-out: Tubulin Peptide-Binding Site Competition Assay IC50.
T1 construct: purchased Cytoskeleton, Inc. T240; host or cells: RB3-SLD was made in house in E. coli
Parameters: species or system Porcine
Experimental: Tubulin Peptide-Binding Site Competition Assay
Tubulin binding potency was measured for payloads or cysteine-capped linker-payloads using a fluorescence polarization (FP) competition assay. The binding of a BODIPY-labeled vinca peptide probe (# B31) to a tubulin/RB3-stathmin-like-domain (RB3-SLD-tdm) complex generates a high FP signal, which can be decreased when mixing with test compounds that compete with the FP probe. The order of addition for the reagents in the FP assay was designed to pre-mix the FP probe with various concentrations of the test compound before mixing them with the tubulin/RB3-SLD-dm complex. The final assay concentrations of the probe, tubulin and RB3-SLD-dm were 3, 6, and 100 nM, respectively. IC50 for each test compound is obtained by fitting the dose-dependent FP signal change using GraphPad Prism version 5 software (La Jolla, Calif.) while Ki is converted from the IC50 using the equations described previously (Nikolovska-Coleska et al., 2004). The FP signals were measured on an Infinite M1000 (Tecan, San Jose, Calif.) using ProxiPlate-384 F Plus, Black (Perkin-Elmer, Waltham, Mass., Cat #6008260) with 15 μL of solution per well. Sample dilution and mixing were done using a Beckman Biomek XF (Brea, Calif.). Porcine tubulin was purchased from Cytoskeleton, Inc. (Denver, Colo., Cat #T240) and RB3-SLD was expressed in E. coli. and purified on Q and then Superdex75 columns. The FP assay test for each compound was run in duplicates by mixing 6 μL of solution 1 containing 2.5× test compound (2.5× serial dilution from 7.8 μM maximum concentration, 11 total concentrations) and 7.5 nM of the FP probe in 80 mM PIPES, pH 7.0, 0.02% Tween 20, 2 mM MgCl2, 1 mM EGTA and 3% DMSO with 9 μL of solution 2 containing […] porcine tubulin and 167 nM of RB3-SLD-dm peptide ([…]-[…]) on ProxiPlate-384 micro-plates.

Structure (SMILES)	IC50 [µM]
CC[C@H](C)[C@H](NC(=O)[C@@]1(C)CCCN1C)C(=O)N(C)[C@H](C[C@@H](OC(C)=O)c1nc(C(=O)NCCC2CCCCC2)cs1)C(C)C [#B49, 1,2-dimethyl-D-prolyl-N-[(1R,3R)-1-(acetyloxy)-1-{4-[(2-cyclohexylethyl)carbamoyl]-1,3-thiazol-2-yl}-4-methylpentan-3-yl]-N-methyl-L-isoleucinamide]	0.127
CC[C@H](C)[C@H](NC(=O)[C@@]1(C)CCCN1C)C(=O)N(C)[C@H](C[C@@H](OC(C)=O)c1nc(C(=O)NCCNC(=O)c2ccccc2)cs1)C(C)C [#B60, 1,2-dimethyl-D-prolyl-N-[(1R,3R)-1-(acetyloxy)-1-(4-{[2-(benzoylamino)ethyl]carbamoyl}-1,3-thiazol-2-yl)-4-methylpentan-3-yl]-N-methyl-L-isoleucinamide]	0.108
CC[C@H](C)[C@H](NC(=O)[C@@]1(C)CCCN1C)C(=O)N(C)[C@H](C[C@@H](OC(C)=O)c1nc(C(=O)NCCc2cncnc2)cs1)C(C)C [#B71, 1,2-dimethyl-D-prolyl-N-[(1R,3R)-1-(acetyloxy)-4-methyl-1-(4-{[2-(pyrimidin-5-yl)ethyl]carbamoyl}-1,3-thiazol-2-yl)pentan-3-yl]-N-methyl-L-isoleucinamide]	0.0851
CC[C@H](C)[C@H](NC(=O)[C@@]1(C)CCCN1C)C(=O)N(C)[C@H](C[C@@H](OC(C)=O)c1nc(C(=O)NCCn2cccn2)cs1)C(C)C [#B56, 1,2-dimethyl-D-prolyl-N-[(1R,3R)-1-(acetyloxy)-4-methyl-1-(4-{[2-(1H-pyrazol-1-yl)ethyl]carbamoyl}-1,3-thiazol-2-yl)pentan-3-yl]-N-methyl-L-isoleucinamide]	0.0336
CC[C@H](C)[C@H](NC(=O)[C@@]1(C)CCCN1C)C(=O)N(C)[C@H](C[C@@H](OC(C)=O)c1nc(C(=O)NCCc2ccc(-c3ccccc3)cc2)cs1)C(C)C [#B45, 1,2-dimethyl-D-prolyl-N-[(1R,3R)-1-(acetyloxy)-1-(4-{[2-(biphenyl-4-yl)ethyl]carbamoyl}-1,3-thiazol-2-yl)-4-methylpentan-3-yl]-N-methyl-L-isoleucinamide]	0.436
CC[C@H](C)[C@H](NC(=O)[C@@]1(C)CCCN1C)C(=O)N(C)[C@H](C[C@@H](OC(C)=O)c1nc(C(=O)NC(Cc2ccccc2)c2ccccc2)cs1)C(C)C (stereo partly drawn) [#B74, 1,2-dimethyl-D-prolyl-N-[(1R,3R)-1-(acetyloxy)-1-{4-[(1,2-diphenylethyl)carbamoyl]-1,3-thiazol-2-yl}-4-methylpentan-3-yl]-N-methyl-L-isoleucinamide]	0.0893
CC[C@H](C)[C@H](NC(=O)[C@@]1(C)CCCN1C)C(=O)N(C)[C@H](C[C@@H](OC(C)=O)c1nc(C(=O)NCCN2Cc3ccccc3C2=O)cs1)C(C)C [#B44, 1,2-dimethyl-D-prolyl-N-[(1R,3R)-1-(acetyloxy)-4-methyl-1-(4-{[2-(1-oxo-1,3-dihydro-2H-isoindol-2-yl)ethyl]carbamoyl}-1,3-thiazol-2-yl)pentan-3-yl]-N-methyl-L-isoleucinamide]	0.0476
CC[C@H](C)[C@H](NC(=O)[C@@]1(C)CCCN1C)C(=O)N(C)[C@H](C[C@@H](OC(C)=O)c1nc(C(=O)NCCN2CCOCC2)cs1)C(C)C [#B46, 1,2-dimethyl-D-prolyl-N-[(1R,3R)-1-(acetyloxy)-4-methyl-1-(4-{[2-(morpholin-4-yl)ethyl]carbamoyl}-1,3-thiazol-2-yl)pentan-3-yl]-N-isomethyl-L-leucinamide]	0.282
CC[C@H](C)[C@H](NC(=O)[C@@]1(C)CCCN1C)C(=O)N(C)[C@H](C[C@@H](OC(C)=O)c1nc(C(=O)NCCN2CCCC2=O)cs1)C(C)C [#B73, 1,2-dimethyl-D-prolyl-N-[(1R,3R)-1-(acetyloxy)-4-methyl-1-(4-{[2-(2-oxopyrrolidin-1-yl)ethyl]carbamoyl}-1,3-thiazol-2-yl)pentan-3-yl]-N-methyl-L-isoleucinamide]	0.0855
CC[C@H](C)[C@H](NC(=O)C(C)(C)N(C)C)C(=O)N(C)[C@H](C[C@@H](OC(C)=O)c1nc(C(=O)N[C@@H](Cc2ccccc2)C[C@H](C)C(=O)OC)cs1)C(C)C [#B34, N,N,-2-trimethylalanyl-N-[(1R,3R)-1-(acetyloxy)-1-(4-{[(2R,4S)-5-methoxy-4-methyl-5-oxo-1-phenylpentan-2-yl]carbamoyl}-1,3-thiazol-2-yl)-4-methylpentan-3-yl]-N-methyl-L-isoleucinamide]	0.0248
CC[C@H](C)[C@H](NC(=O)[C@@]1(C)CCCN1C)C(=O)N(C)[C@H](C[C@@H](OC(C)=O)c1nc(C(=O)NCCc2cnn(C)c2)cs1)C(C)C [#B77, 1,2-dimethyl-D-prolyl-N-[(1R,3R)-1-(acetyloxy)-4-methyl-1-(4-{[2-(1-methyl-1H-pyrazol-4-yl)ethyl]carbamoyl}-1,3-thiazol-2-yl)pentan-3-yl]-N-methyl-L-isoleucinamide]	0.249
CC[C@H](C)[C@H](NC(=O)[C@@]1(C)CCCN1C)C(=O)N(C)[C@H](C[C@@H](OC(C)=O)c1nc(C(=O)NC(c2ccccc2)c2ccccc2)cs1)C(C)C [#B67, 1,2-dimethyl-D-prolyl-N-[(1R,3R)-1-(acetyloxy)-1-{4-[(diphenylmethyl)carbamoyl]-1,3-thiazol-2-yl}-4-methylpentan-3-yl]-N-methyl-L-isoleucinamide]	0.348
CC[C@H](C)[C@H](NC(=O)[C@@]1(C)CCCN1C)C(=O)N(C)[C@H](C[C@@H](OC(C)=O)c1nc(C(=O)NCCN2CCOC2=O)cs1)C(C)C [#B64, 1,2-dimethyl-D-prolyl-N-[(1R,3R)-1-(acetyloxy)-4-methyl-1-(4-{[2-(2-oxo-1,3-oxazolidin-3-yl)ethyl]carbamoyl}-1,3-thiazol-2-yl)pentan-3-yl]-N-methyl-L-isoleucinamide]	0.073
CC[C@H](C)[C@H](NC(=O)[C@@]1(C)CCCN1C)C(=O)N(C)[C@H](C[C@@H](OC(C)=O)c1nc(C(=O)NC2(c3ccccn3)CC2)cs1)C(C)C [#B63]	0.105
CC[C@H](C)[C@H](NC(=O)[C@@]1(C)CCCN1C)C(=O)N(C)[C@H](C[C@@H](OC(C)=O)c1nc(C(=O)NCCn2ccnc2)cs1)C(C)C [#B48, 1,2-dimethyl-D-prolyl-N-[(1R,3R)-1-(acetyloxy)-1-{4-{[2-(1H-imidazol-1-yl)ethyl]carbamoyl}-1,3-thiazol-2-yl)-4-methylpentan-3-yl]-N-methyl-L-isoleucinamide]	0.11
CC[C@H](C)[C@H](NC(=O)[C@@]1(C)CCCN1C)C(=O)N(C)[C@H](C[C@@H](OC(C)=O)c1nc(C(=O)NCCc2cnccn2)cs1)C(C)C [#B68, 1,2-dimethyl-D-prolyl-N-{(1R,3R)-1-(acetyloxy)-4-methyl-1-(4-{[2-(pyrazin-2-yl)ethyl]carbamoyl}-1,3-thiazol-2-yl)pentan-3-yl]-N-methyl-L-isoleucinamide]	0.0847
CC[C@H](C)[C@H](NC(=O)[C@@]1(C)CCCN1C)C(=O)N(C)[C@H](C[C@@H](OC(C)=O)c1nc(C(=O)NCC2(c3ccccc3)CCN(C)CC2)cs1)C(C)C [#B65, 1,2-dimethyl-D-prolyl-N-[(1R,3R)-1-(acetyloxy)-4-methyl-1-(4-{[(1-methyl-4-phenylpiperidin-4-yl)methyl]carbamoyl}-1,3-thiazol-2-yl)pentan-3-yl]-N-methyl-L-isoleucinamide]	0.0338
CC[C@H](C)[C@H](NC(=O)C(C)(C)N)C(=O)N(C)[C@H](C[C@@H](OC(C)=O)c1nc(C(=O)N[C@@H](Cc2ccccc2)C[C@H](C)C(=O)OC)cs1)C(C)C [#B35, 2-methylalanyl-N-[(1R,3R)-1-(acetyloxy)-1-(4-{[(2R,4S)-5-methoxy-4-methyl-5-oxo-1-phenylpentan-2-yl]carbamoyl}-1,3-thiazol-2-yl)-4-methylpentan-3-yl]-N-methyl-L-isoleucinamide]	0.0968
CC[C@H](C)[C@H](NC(=O)[C@@]1(C)CCCN1C)C(=O)N(C)[C@H](C[C@@H](OC(C)=O)c1nc(C(=O)NC2(c3ccccc3)CC2)cs1)C(C)C [#B52, 1,2-dimethyl-D-prolyl-N-[(1R,3R)-1-(acetyloxy)-4-methyl-1-{4-[(1-phenylcyclopropyl)carbamoyl]-1,3-thiazol-2-yl}pentan-3-yl]-N-methyl-L-isoleucinamide]	0.0618
CC[C@H](C)[C@H](NC(=O)[C@@]1(C)CCCN1C)C(=O)N(C)[C@H](C[C@@H](OC(C)=O)c1nc(C(=O)NC2CCc3ccccc3C2)cs1)C(C)C (stereo partly drawn) [#B57, 1,2-dimethyl-D-prolyl-N-{(1R,3R)-1-(acetyloxy)-4-methyl-1-[4-(1,2,3,4-tetrhydronaphthalen-2-ylcarbamoyl)-1,3-thiazol-2-yl)pentan-3-yl}-N-methyl-L-isoleucinamide]	0.0788
